Measurements from ChEMBL document CHEMBL5465560, “Selectivity Literature for EUbOPEN Chemogenomic Library” (2024).

Assays:
[1] = biological target: T1, Fibroblast growth factor receptor 3 (Homo sapiens, UniProt P22607); test: (§1) Selectivity interaction (Ambit KINOMEscan and KiNATiv profiling in Jurkat cells) EUB0000090b FGFR3; format: cell-based; details: at 1 µM
[2] = test system: Fibroblast growth factor receptor 3 (Homo sapiens), P22607 [G697C]; test: as §1; format: cell-based; details: at 1 µM
[3] = biological target: Tyrosine-protein kinase ABL1 (Homo sapiens, UniProt P00519); test: Selectivity interaction (Kinase panel (literature)) EUB0001199aCl ABL1; details: at 1 µM
[4] = biological target: T2, Serine/threonine-protein kinase D3 (Homo sapiens) (UniProt O94806); test: Selectivity interaction (KinomeScan (DiscoverX)) EUB0000655a PRKD3; details: at 10 µM
T2 sequence (whole entry): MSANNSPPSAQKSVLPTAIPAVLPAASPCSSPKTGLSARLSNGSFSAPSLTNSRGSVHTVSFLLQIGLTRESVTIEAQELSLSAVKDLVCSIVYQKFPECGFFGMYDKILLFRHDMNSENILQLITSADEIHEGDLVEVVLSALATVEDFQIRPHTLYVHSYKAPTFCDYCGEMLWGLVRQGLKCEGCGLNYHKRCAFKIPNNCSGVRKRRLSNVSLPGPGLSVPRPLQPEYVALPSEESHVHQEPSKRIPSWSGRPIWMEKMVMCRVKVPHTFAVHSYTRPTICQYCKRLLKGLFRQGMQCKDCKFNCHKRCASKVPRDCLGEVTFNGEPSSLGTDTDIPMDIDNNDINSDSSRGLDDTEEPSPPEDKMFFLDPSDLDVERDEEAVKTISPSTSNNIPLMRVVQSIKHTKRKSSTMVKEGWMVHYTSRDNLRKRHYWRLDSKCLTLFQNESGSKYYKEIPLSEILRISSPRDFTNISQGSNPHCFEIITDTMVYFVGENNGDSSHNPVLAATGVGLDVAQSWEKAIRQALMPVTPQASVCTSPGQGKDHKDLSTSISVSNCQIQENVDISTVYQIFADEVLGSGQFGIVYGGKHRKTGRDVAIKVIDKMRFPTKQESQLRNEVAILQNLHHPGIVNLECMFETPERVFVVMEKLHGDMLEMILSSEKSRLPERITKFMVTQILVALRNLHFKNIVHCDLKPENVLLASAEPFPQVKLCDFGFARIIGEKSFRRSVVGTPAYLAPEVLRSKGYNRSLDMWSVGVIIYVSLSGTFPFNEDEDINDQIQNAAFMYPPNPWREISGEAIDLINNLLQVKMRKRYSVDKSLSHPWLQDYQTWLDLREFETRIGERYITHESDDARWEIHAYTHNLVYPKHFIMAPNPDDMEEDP

[5] = biological target: Serine/threonine-protein kinase MARK2 (Homo sapiens) (UniProt Q7KZI7); test: Selectivity interaction (KinomeScan (DiscoverX)) EUB0000655a MARK2; details: at 10 µM
[6] = biological target: T3, Cyclin-G-associated kinase (Homo sapiens) (UniProt O14976); test: Selectivity interaction (KinomeScan (DiscoverX)) EUB0000618a GAK; details: at 10 µM
T3 sequence (whole entry): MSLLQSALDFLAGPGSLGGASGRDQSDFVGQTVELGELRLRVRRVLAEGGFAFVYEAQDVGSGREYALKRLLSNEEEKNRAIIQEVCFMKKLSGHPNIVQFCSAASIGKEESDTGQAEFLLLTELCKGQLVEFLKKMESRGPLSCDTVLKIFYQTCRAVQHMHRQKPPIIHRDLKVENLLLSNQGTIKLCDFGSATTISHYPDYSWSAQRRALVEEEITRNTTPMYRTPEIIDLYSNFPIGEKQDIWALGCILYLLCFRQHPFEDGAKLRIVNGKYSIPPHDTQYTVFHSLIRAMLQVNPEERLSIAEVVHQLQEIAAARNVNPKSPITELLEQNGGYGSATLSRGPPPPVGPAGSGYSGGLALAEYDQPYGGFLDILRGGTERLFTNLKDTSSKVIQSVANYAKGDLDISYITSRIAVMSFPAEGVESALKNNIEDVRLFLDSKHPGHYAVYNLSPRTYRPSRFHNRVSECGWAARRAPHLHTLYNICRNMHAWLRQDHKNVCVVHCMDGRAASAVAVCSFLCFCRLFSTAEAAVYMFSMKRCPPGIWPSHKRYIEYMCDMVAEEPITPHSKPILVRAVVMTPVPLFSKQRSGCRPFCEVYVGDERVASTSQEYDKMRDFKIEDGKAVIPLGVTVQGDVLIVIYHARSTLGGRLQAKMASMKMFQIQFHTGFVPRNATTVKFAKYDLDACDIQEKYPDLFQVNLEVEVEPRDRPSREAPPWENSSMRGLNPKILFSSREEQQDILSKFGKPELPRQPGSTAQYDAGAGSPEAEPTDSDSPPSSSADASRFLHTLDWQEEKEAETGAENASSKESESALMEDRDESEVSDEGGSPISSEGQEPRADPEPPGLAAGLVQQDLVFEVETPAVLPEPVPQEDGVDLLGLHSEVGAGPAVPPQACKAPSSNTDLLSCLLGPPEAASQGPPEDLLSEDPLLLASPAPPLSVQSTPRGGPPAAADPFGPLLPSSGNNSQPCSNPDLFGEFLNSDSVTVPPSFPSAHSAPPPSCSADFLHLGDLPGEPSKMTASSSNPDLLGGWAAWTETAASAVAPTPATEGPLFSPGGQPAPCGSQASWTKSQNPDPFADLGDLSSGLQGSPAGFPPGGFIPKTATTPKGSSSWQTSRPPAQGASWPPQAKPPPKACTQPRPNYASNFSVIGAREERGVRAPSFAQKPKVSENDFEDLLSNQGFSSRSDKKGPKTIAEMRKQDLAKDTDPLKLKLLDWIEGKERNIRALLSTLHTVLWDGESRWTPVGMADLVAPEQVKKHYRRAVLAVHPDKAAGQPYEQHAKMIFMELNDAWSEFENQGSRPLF

[7] = biological target: T1, Fibroblast growth factor receptor 3; test: (§2) Selectivity interaction (KinomeScan (DiscoverX)) EUB0000607a FGFR3; details: at 10 µM
[8] = test system: Fibroblast growth factor receptor 3 (Homo sapiens), P22607 [G697C]; test: as §2; details: at 10 µM
[9] = biological target: Ribosomal protein S6 kinase alpha-1 (Homo sapiens, UniProt Q15418); test: Selectivity interaction (ActivX KiNativ screen (ex vivo kinase selectivity in human PBMCs)) EUB0001619a RPS6KA1; format: cell-based; details: PBMC, at 1 µM
[10] = biological target: Serine/threonine-protein kinase 26 (Homo sapiens, UniProt Q9P289); test: Selectivity interaction (ActivX KiNativ screen (kinase selectivity in THP-1 cell lysates)) EUB0000639a STK26; format: subcellular; details: lysate, at 1 µM
[11] = biological target: Tyrosine-protein kinase Fes/Fps (Homo sapiens) (UniProt P07332); test: Selectivity interaction (Kinase panel (Invitrogen)) EUB0000639a FES; details: at 200 nM
[12] = biological target: Wee1-like protein kinase (Homo sapiens) (UniProt P30291); test: Selectivity interaction (KinomeScan (DiscoverX)) EUB0000695a WEE1; details: at 100 nM
Sequence of Wee1-like protein kinase (Homo sapiens) (P30291 whole entry, looked up): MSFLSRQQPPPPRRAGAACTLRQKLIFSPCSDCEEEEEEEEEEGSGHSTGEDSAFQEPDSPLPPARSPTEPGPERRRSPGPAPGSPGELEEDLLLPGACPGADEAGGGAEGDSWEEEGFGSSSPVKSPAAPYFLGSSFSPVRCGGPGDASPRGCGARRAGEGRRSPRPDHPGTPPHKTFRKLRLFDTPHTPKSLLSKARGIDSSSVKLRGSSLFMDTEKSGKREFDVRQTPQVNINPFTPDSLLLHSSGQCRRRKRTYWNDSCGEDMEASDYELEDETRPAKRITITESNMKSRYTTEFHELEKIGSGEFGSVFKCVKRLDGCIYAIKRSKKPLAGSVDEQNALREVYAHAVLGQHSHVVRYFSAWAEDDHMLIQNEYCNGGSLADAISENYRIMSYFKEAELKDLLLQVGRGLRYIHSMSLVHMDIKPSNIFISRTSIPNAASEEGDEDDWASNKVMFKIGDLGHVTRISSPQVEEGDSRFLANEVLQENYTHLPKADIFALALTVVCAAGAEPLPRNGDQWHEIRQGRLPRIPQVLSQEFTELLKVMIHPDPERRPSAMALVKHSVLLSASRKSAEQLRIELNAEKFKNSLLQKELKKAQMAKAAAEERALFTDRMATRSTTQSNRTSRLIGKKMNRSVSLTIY

T1 sequence (P22607 23-806 limits assumed): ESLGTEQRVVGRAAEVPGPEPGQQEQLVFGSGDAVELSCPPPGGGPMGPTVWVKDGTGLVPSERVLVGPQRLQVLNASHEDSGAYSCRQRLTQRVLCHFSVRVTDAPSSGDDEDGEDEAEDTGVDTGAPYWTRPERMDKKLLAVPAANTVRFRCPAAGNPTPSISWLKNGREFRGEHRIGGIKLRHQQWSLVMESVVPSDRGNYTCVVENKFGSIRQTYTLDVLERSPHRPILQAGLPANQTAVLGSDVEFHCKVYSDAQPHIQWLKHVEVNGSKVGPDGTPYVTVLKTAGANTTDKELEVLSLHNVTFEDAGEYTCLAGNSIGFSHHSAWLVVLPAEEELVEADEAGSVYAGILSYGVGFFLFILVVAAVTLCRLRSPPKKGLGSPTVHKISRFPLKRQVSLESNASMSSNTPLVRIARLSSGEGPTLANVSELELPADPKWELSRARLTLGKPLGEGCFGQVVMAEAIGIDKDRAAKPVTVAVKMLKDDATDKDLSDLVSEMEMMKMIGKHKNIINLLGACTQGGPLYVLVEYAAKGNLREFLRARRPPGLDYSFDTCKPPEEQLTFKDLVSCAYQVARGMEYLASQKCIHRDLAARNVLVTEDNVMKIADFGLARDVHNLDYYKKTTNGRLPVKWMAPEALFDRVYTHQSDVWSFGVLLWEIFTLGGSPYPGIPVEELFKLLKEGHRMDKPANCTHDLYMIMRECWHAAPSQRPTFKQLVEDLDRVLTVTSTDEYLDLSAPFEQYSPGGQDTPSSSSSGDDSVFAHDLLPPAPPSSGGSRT
Sequence of Fibroblast growth factor receptor 3 (Homo sapiens), P22607 [G697C] (P22607 whole entry G697C): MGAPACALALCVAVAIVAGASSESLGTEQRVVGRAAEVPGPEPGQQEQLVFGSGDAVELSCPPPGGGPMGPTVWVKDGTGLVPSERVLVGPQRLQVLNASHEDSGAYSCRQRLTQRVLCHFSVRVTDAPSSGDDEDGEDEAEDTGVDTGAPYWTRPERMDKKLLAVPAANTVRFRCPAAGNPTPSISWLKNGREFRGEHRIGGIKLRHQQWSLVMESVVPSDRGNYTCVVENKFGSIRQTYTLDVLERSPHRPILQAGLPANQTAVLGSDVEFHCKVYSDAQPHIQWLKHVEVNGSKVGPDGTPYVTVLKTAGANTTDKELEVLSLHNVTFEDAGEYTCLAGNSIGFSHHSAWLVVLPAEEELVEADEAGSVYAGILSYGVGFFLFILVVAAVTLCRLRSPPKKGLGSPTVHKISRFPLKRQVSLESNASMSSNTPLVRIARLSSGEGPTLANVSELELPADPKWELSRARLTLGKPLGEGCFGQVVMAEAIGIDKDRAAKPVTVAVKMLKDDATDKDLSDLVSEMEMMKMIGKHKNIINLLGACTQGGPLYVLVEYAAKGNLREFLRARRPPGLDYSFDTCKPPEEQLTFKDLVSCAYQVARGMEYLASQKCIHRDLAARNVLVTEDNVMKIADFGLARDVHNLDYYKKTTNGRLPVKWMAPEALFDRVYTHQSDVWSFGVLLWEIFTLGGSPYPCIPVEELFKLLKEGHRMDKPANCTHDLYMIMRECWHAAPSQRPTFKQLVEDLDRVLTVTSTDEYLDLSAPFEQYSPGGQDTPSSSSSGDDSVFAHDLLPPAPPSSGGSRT
Sequence of Tyrosine-protein kinase Fes/Fps (Homo sapiens) (P07332 whole entry): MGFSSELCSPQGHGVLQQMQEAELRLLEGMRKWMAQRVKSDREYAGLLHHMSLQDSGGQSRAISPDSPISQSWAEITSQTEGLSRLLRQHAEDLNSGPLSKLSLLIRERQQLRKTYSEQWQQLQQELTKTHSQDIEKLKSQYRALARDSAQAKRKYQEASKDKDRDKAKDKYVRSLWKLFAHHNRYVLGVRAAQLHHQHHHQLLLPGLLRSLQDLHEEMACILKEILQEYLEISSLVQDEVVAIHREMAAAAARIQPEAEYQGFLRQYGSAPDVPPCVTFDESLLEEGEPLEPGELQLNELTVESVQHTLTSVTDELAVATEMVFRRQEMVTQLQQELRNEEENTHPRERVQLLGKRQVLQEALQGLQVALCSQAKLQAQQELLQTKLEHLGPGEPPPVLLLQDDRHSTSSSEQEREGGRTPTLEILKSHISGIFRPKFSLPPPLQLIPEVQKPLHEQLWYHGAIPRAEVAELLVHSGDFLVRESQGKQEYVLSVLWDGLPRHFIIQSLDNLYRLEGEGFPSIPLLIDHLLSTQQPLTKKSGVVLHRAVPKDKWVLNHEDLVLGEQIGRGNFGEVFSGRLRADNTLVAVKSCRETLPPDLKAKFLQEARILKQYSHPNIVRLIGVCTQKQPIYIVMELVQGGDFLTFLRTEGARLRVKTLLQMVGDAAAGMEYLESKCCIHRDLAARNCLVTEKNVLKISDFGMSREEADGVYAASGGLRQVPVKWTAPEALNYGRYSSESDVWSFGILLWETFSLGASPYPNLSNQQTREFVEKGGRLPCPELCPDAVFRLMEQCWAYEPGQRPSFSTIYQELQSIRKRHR
Sequence of Serine/threonine-protein kinase MARK2 (Homo sapiens) (Q7KZI7 whole entry): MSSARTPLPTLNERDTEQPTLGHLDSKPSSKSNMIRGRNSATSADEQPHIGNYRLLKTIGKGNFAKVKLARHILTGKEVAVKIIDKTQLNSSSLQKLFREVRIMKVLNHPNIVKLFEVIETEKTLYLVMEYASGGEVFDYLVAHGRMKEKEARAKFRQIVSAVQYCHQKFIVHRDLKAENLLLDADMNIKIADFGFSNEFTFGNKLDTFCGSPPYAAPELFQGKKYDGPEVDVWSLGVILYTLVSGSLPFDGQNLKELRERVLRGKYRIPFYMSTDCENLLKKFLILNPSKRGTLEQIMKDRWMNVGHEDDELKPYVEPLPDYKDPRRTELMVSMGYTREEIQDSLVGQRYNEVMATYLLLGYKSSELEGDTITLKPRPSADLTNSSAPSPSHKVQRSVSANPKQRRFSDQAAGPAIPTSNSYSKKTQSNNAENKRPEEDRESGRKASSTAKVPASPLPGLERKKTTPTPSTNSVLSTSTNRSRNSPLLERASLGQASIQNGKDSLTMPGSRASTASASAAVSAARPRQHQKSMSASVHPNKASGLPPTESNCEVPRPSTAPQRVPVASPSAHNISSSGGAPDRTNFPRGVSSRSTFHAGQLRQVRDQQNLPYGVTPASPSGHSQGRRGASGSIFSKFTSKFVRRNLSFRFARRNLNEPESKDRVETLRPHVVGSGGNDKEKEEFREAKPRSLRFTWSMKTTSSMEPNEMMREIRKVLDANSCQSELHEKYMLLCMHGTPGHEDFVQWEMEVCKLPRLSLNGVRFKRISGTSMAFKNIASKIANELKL
Sequence of Serine/threonine-protein kinase 26 (Q9P289 2-416 limits assumed): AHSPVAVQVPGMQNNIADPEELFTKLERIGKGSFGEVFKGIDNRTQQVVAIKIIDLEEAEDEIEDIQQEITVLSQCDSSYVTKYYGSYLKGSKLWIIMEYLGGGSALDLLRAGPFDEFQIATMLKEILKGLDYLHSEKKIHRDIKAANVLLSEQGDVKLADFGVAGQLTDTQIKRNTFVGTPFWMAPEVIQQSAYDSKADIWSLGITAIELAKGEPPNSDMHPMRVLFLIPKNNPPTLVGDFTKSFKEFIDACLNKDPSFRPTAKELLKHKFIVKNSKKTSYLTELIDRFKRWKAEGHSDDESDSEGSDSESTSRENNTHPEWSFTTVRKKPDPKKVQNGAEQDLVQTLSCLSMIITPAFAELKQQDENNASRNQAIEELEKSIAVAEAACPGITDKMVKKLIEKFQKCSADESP
Sequence of Ribosomal protein S6 kinase alpha-1 (Q15418 whole entry): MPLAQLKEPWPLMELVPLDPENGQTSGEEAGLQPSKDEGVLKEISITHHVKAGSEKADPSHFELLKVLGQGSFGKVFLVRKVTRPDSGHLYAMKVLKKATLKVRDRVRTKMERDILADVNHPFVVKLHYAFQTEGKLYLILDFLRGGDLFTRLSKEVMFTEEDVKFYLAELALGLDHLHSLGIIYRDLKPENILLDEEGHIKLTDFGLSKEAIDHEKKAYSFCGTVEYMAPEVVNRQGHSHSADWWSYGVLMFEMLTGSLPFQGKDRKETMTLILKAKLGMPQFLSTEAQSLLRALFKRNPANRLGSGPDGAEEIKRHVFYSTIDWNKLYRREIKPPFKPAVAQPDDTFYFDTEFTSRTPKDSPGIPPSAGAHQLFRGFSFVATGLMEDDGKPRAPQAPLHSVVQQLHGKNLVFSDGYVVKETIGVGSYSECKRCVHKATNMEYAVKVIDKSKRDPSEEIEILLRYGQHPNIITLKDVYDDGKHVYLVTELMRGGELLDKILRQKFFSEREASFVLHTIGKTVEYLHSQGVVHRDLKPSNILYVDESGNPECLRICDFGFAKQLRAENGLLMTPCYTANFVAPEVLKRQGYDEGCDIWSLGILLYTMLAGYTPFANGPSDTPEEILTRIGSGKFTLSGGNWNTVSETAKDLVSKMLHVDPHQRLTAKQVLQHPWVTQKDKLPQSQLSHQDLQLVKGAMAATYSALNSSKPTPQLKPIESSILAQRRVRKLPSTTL

In the case of `CN(C)C/C=C/C(=O)Nc1ccc(C(=O)N2CCCC(Nc3ncc(Cl)c(-c4c[nH]c5ccccc45)n3)C2)cc1` (configuration not stated), the % of control [1] is reported as 92% and the % of control [2] is reported as 72%.

For `CN1Cc2nccc(-c3cn(C)nc3-c3ccc(F)cc3)c2C1=O`, the % of inhibition [3] was 1%.

Work on `CN(C)CCOc1ccc(-c2nc(-c3ccncc3)c(-c3ccc4c(c3)CC/C4=N\O)[nH]2)cc1` yielded a % of control [4] of 40% and a % of control [5] of 100%.

`O[C@H]1CC[C@H](Nc2ncc3nc(Nc4c(F)cc(F)cc4F)n([C@H]4CCOC4)c3n2)CC1` showed a % of control [6] of 13%.

With `CNC(=O)Nc1ccc(-c2nc(N3CC4CCC(C3)O4)c3cnn(C4CCC5(CC4)OCCO5)c3n2)cc1` the % of control [7] was 83% and the % of control [8] was 74%.

`N#Cc1cccc(-c2c[nH]c3ncnc(N4CCOCC4)c23)c1` gave a % of inhibition [9] of 56%.

For `CC[C@@H]1[C@H](F)C(=O)N[C@@H]1COc1nccc2cc(C(N)=O)c(OC)cc12` [ZIMLOVISERTIB], the % of inhibition [10] was -9.2% and the % of inhibition [11] was 1.51%.

`Cc1cc(F)c(C(=O)Nc2cccc(-c3nncn3C(C)C)n2)cc1-n1cnc(C2CC2)c1` showed a % of control [12] of 100%.
